Measurements from US7935335B2, “Strains belonging to the genus Paenibacillus and method of controlling plant disease by using these strains or culture thereof” (Kaken Pharmaceutical Co., Ltd., priority 2004, dated 2011).
Where a SMILES comes first, the peptide text is derived from it. Bridges are numbered along the chain shown (N, C = ends). The star is where a group is joined. ξ: configuration not given here. Pentadecanoyl(3ξ-OH,15-Gua) = N=C(N)NCCCCCCCCCCCCC(O)CC(=O)*

What was measured:
parsley cultured cells [1] = assay: Activity of inducing disease resistance: elicitor responsiveness of parsley cultured cells, phytoalexin detection by fluorescence; assay type: cell-based; details: for Elicitor responsiveness of parsley cultured cells (in words): each compound alone; for Relative fluorescence: 0.5 μM
Method: The activity of inducing disease resistance in plant of compound 1 and compound 2 according to the present invention was also evaluated according to the method of Siegrist, J. et al. The results are shown in Table 9.
(§1) The activity of inducing disease resistance in plant of each of compound 1 and compound 2 was evaluated in the same manner as in Evaluation Example 1 by adopting the method practiced in Evaluation Example 1, i.e., the method in which the elicitor responsiveness of parsley cultured cells was measured by the detection of phytoalexin using fluorescence.
as §1, with “inducing” for “inducing disease”, “resistance to” for “resistance in”, “plant diseases” for “plant”, “compound 3” for “compound 1”, “compound 4” for “compound 2”

[2] = tested on: cucumber bacterial blight bacterium (Pseudomonas syringae pv. lachrymans); assay: Evaluation Example 2: paper disc test for direct antimicrobial activity against cucumber bacterial blight bacterium; assay type: cell-based; details: tested as 3:2 mixture, 60 + 40 ppm
Method: That is, cucumber bacterial blight bacterium was mixed with a potato semisynthetic medium (a decoction consisting of 300 g of potato and 1 L of distilled water, calcium nitrate tetrahydrate 0.5 g, disodium hydrogenphosphate dodecahydrate 2 g, peptone 5 g, sucrose 20 g, powdered agar 15 g) maintained at 45° C., in a proportion of 1×10^8 CFU/mL, and the resulting mixture was dispensed in 20 mL aliquots into sterilized Petri dishes. After the solidification of the medium, 50 μL of a solution obtained by dissolving a 3:2 mixture of compounds 1 and 2 in dimethyl sulfoxide to a concentration of 100 μg/mL was infiltrated into a paper disc with a diameter of 8 mm, and then the paper disc was allowed to stand on the medium. After 48 hours of cultivation at 25° C. in the dark, the activity was evaluated on the basis of the presence of an inhibition zone around the periphery

[3] = tested on: cucumber bacterial blight bacterium; details: patent document 3; cited from earlier work
Gram-negative bacteria = details: patent document 3, non-patent documents 4 and 5; cited from earlier work
parsley cultured cells [4] = assay: Activity of inducing disease resistance: elicitor responsiveness of parsley cultured cells, phytoalexin detection by fluorescence; assay type: cell-based; details: Evaluation Example 1; tested as 3:2 mixture
[5] = tested on: Fusarium wilt of cucumber fungus; details: patent document 3; cited from earlier work
Solubility in solvents = assay type: physicochemical
[6] = Evaluation Example 6, elicitor treatment No
[7] = Evaluation Example 6, elicitor treatment Yes
[8] = Evaluation Example 7, elicitor No
[9] = Evaluation Example 7, elicitor Yes
[10] = in ethyl acetate, chloroform and hexane
[11] = in methanol, butanol, isopropyl alcohol and dimethyl sulfoxide

SMILES | Elicitor responsiveness of parsley cultured cells (in words) (parsley cultured cells [1]; Evaluation Example 6) | Relative fluorescence (parsley cultured cells [1]; [6]) | Relative fluorescence (parsley cultured cells [1]; [7]) | Direct antimicrobial activity against cucumber bacterial blight bacterium (in words) [2] | Antimicrobial activity against cucumber bacterial blight bacterium [3] | Antimicrobial activity against Gram-negative bacteria (Gram-negative bacteria) | Elicitor responsiveness of parsley cultured cells (in words) (parsley cultured cells [4]) | Antimicrobial activity against Fusarium wilt of cucumber fungus [5] | Elicitor responsiveness of parsley cultured cells (in words) (parsley cultured cells [1]; Evaluation Example 7) | Relative fluorescence (parsley cultured cells [1]; [8]) | Relative fluorescence (parsley cultured cells [1]; [9]) | Solubility (Solubility in solvents; [10]) | Solubility (Solubility in solvents; [11])
CC1NC(=O)C(CC(N)=O)NC(=O)C(C(C)O)NC(=O)C(C(C)C)NC(=O)C(C(C)C)NC(=O)C(NC(=O)CC(O)CCCCCCCCCCCCNC(=N)N)C(C)OC1=O (stereo not drawn) [Compound 1, Fusaricidin A] ({Pentadecanoyl(3ξ-OH,15-Gua)}-TVVTNA; ester 1-C; configuration not given here) | improves the elicitor responsiveness | 98.5 | 1000 | do not exhibit direct antimicrobial activity | inactive | inactive | improve the elicitor responsiveness | no antimicrobial activity |  |  |  |  | 
CC1NC(=O)C(CCC(N)=O)NC(=O)C(C(C)O)NC(=O)C(C(C)C)NC(=O)C(C(C)C)NC(=O)C(NC(=O)CC(O)CCCCCCCCCCCCNC(=N)N)C(C)OC1=O (stereo not drawn) [Compound 2, Fusaricidin B] ({Pentadecanoyl(3ξ-OH,15-Gua)}-TVVTQA; ester 1-C; configuration not given here) | improves the elicitor responsiveness | 100.7 | 1000 | do not exhibit direct antimicrobial activity |  | inactive | improve the elicitor responsiveness |  |  |  |  |  | 
CC(N)C(=O)OC(C)C1NC(=O)C(C(C)C)NC(=O)C(C(C)C)NC(=O)C(NC(=O)CC(O)CCCCCCCCCCCCNC(=N)N)C(C)OC(=O)C(C)NC(=O)C(CC(N)=O)NC1=O (stereo not drawn) [Compound 3] ({Pentadecanoyl(3ξ-OH,15-Gua)}-TVVT(Ala)NA; ester 1-C; configuration not given here) |  |  |  |  |  |  |  |  | improve the elicitor responsiveness | 3.1 | 222.7 | insoluble | readily soluble
CC(N)C(=O)OC(C)C1NC(=O)C(C(C)C)NC(=O)C(C(C)C)NC(=O)C(NC(=O)CC(O)CCCCCCCCCCCCNC(=N)N)C(C)OC(=O)C(C)NC(=O)C(CCC(N)=O)NC1=O (stereo not drawn) [Compound 4] ({Pentadecanoyl(3ξ-OH,15-Gua)}-TVVT(Ala)QA; ester 1-C; configuration not given here) |  |  |  |  |  |  |  |  | improve the elicitor responsiveness | 0.7 | 504.8 | insoluble | readily soluble
